Patent US9938320B2, “Peptides for promoting angiogenesis and use thereof” (INDUSTRY-ACADEMIC COOPERATION FOUNDATION, SOOKMYUNG WOMEN'S …, priority 2010, dated 2018)

How the values were obtained:
HUVECs = assay: Migration of HUVECs through polycarbonate filter chamber; assay type: cell-based, human; details: 37° C. for 10 hours, negative control (untreated) = 100
Procedure: In order to investigate the effect of the 4 peptides prepared in Example 1 on blood vessel formation, migration of HUVECs was measured.
The bottom portion of a chamber of a 24-well plate (Corning Costar, USA) having a polycarbonate filter with pores therebelow was coated with 0.5 mg/mL collagen type 1 ([…]). After adding EBM-2 containing the 4 peptides of the peptide of the present invention to the bottom portion of the chamber, HUVECs were inoculated at the upper portion of the chamber, with 1×10^5 cells per well. After incubation at 37° C. for 10 hours, the cells that had passed through the polycarbonate filter were fixed with methanol, stained with hematoxylin, and counted under a microscope.

[1] = system: human umbilical vein endothelial cells (HUVECs); assay: Proliferation of HUVECs (CyQUANT kit); assay type: cell-based; details: 48 hours with peptide, negative control (untreated) = 100
Procedure: In order to investigate the effect of the 4 peptides prepared in Example 1 on blood vessel formation, human umbilical vein endothelial cells (HUVECs) were treated with the peptide of the present invention and their proliferation was observed.
HUVECs were cultured in endothelial cell basal medium-2 (EBM-2, Clonetics Co., San Diego, USA) containing 2% fetal bovine serum (FBS). The cultured HUVECs were transferred to a 96-well plate, with 1000 cells per each well. After culturing for 24 hours followed by addition of the 4 peptides of the peptide of the present invention to each well, they were further cultured for 48 hours. The cells treated with VEGF instead of the peptide of the present invention and those treated with nothing were cultured under the same condition, as positive control group and negative control group, respectively. Upon completion of the culturing, the degree of cell proliferation was measured using the CyQUANT kit (Invitrogen, USA).

| Substance | Cell migration (%) (HUVECs) | Cell proliferation (%) [1] |
| --- | --- | --- |
| SEGQK (Pep_7 Artificial Peptide for Promotion of Angiogenesis) | 155.4% | 203.3% |
| NQES (Pep_10 Artificial Peptide for Promotion of Angiogenesis) | 173.2% | 146.5% |
| PKES (Pep_9 Artificial Peptide for Promotion of Angiogenesis) | 156.4% | 212.5% |
| SDRGA (Pep_8 Artificial Peptide for Promotion of Angiogenesis) | 147.0% | 209.2% |
| VEGF | 146.3% | 166.0% |
